PMC7226027, “Phosphonic Acid Analogs of Fluorophenylalanines as Inhibitors of Human and Porcine Aminopeptidases N: Validation of the Importance of the Substitution of the Aromatic Ring” (Biomolecules, 2020)
Where two headings read alike, the source gives them in different places.

Assays:
Format in all cases: biochemical
[1] = target: T1, pAPN (porcine kidney alanine aminopeptidase, EC 3.4.11.2) (Sus scrofa, UniProt P15145); test: fluorogenic assay, Ala-AMC hydrolysis; Ki by Lineweaver-Burk, Dixon, Cheng-Prusoff; conditions: for pAPN Ki (μM): unreliable (value above highest stated concentration, 1 mM)
T1 construct: gene ANPEP; commercial enzyme from porcine kidney (Sigma Aldrich), native purification, lyophilized powder
T1 sequence (P15145 2-963): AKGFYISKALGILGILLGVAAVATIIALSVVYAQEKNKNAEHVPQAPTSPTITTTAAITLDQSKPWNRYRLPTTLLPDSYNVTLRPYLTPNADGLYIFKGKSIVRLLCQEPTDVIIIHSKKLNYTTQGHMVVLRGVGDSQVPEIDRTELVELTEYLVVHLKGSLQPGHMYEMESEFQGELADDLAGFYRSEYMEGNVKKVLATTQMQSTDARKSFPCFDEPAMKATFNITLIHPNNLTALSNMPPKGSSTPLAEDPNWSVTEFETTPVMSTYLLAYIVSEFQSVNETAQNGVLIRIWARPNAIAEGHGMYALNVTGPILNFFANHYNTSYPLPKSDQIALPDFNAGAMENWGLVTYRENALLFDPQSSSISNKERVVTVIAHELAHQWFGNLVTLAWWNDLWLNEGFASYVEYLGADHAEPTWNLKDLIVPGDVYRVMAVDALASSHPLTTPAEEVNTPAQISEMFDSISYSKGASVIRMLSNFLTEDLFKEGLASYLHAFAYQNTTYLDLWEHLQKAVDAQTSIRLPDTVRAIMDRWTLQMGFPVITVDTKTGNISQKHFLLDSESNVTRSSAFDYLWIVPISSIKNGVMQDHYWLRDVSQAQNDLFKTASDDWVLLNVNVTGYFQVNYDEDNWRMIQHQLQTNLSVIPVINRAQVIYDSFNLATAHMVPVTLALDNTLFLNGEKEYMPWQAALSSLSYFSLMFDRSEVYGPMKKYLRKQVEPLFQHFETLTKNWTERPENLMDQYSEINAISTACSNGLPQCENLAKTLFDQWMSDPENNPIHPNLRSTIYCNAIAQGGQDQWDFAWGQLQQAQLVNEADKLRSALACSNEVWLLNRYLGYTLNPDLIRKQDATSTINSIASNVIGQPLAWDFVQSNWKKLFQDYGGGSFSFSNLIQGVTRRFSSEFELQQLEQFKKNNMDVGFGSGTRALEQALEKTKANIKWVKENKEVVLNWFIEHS
Source text: fluorogenic assay, Ala-AMC hydrolysis; Ki by Lineweaver-Burk, Dixon, Cheng-Prusoff on pAPN (porcine kidney alanine aminopeptidase, EC 3.4.11.2)

[2] = target: T2, hAPN (recombinant human alanine aminopeptidase, EC 3.4.11.2) (Homo sapiens, UniProt P15144); test: as above
T2 construct: gene ANPEP; commercial recombinant enzyme (R&D Systems), lyophilized powder
T2 sequence (P15144 33-967 limits assumed): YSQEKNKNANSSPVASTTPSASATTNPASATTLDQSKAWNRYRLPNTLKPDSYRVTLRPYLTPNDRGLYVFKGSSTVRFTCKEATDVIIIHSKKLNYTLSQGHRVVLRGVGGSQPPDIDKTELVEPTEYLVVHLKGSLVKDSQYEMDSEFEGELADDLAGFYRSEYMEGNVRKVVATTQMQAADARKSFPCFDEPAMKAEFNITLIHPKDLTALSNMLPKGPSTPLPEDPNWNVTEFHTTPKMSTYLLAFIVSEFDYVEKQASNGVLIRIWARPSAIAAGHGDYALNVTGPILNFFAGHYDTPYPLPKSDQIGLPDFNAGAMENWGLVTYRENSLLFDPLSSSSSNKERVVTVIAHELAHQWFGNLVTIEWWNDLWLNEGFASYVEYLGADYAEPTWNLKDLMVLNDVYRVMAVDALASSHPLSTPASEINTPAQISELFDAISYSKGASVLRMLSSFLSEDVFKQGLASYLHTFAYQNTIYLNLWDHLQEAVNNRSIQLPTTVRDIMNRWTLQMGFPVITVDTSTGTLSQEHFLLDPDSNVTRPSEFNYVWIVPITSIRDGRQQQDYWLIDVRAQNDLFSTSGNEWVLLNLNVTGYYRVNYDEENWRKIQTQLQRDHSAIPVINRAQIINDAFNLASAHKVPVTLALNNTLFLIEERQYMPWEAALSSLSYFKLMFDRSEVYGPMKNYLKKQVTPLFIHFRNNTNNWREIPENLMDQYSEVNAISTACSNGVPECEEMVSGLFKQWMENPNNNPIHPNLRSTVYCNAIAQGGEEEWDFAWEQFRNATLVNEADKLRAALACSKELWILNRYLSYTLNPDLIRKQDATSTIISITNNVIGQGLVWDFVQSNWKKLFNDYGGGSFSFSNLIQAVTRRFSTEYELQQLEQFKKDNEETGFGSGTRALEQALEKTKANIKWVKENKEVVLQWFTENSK
Source text: fluorogenic assay, Ala-AMC hydrolysis; Ki by Lineweaver-Burk, Dixon, Cheng-Prusoff on hAPN (recombinant human alanine aminopeptidase, EC 3.4.11.2)

[3] = target: T2, hAPN (recombinant human alanine aminopeptidase, EC 3.4.11.2); test: fluorogenic assay (AMC release); conditions: 50 mM Tris-HCl pH 7.00
[4] = target: T1, pAPN (porcine kidney alanine aminopeptidase, EC 3.4.11.2); test: fluorogenic assay (AMC release); conditions: 50 mM Tris-HCl pH 7.20
[5] = racemate (hydrochloride), 80 µM Ala-AMC, 50 mM Tris-HCl pH 7.20, 37 °C
[6] = read-out: Inactive (no inhibition up to 1 mM)
[7] = racemate (hydrochloride), 80 µM Ala-AMC, 50 mM Tris-HCl pH 7.20, 37 °C, 0.66 nM enzyme, 30 min enzyme preincubation in buffer

Structure (SMILES)	Ki [1] [µM]	Ki ([2]; read-out: hAPN Ki) [µM]	other results
NC(Cc1ccccc1F)P(=O)(O)O (racemic) [1b, 1-Amino-2-(2-fluorophenyl)ethylphosphonic Acid]	256 ± 19	–	Ki [2]: 18.1 ± 3.7 µM
NC(Cc1cccc(F)c1)P(=O)(O)O (racemic) [1c, 1-Amino-2-(3-fluorophenyl)ethylphosphonic Acid]	26.4 ± 2	–	Ki [2]: 3.39 ± 0.71 µM
NC(Cc1ccc(F)cc1)P(=O)(O)O (racemic) [1d, 1-Amino-2-(4-fluorophenyl)ethylphosphonic Acid]	41.4 ± 2.5	–	Ki [2]: 4.86 ± 1.18 µM
NC(Cc1cc(F)ccc1F)P(=O)(O)O (racemic) [1f, 1-Amino-2-(2,5-difluorophenyl)ethylphosphonic Acid]	86.3 ± 8.2	25.9 ± 5	–
NC(Cc1c(F)cccc1F)P(=O)(O)O (racemic) [1g, 1-Amino-2-(2,6-difluorophenyl)ethylphosphonic Acid]	725 ± 121	327 ± 98	–
NC(Cc1c(F)cc(F)cc1F)P(=O)(O)O (racemic) [1k, 1-Amino-2-(2,4,6-trifluorophenyl)ethylphosphonic Acid]	969 ± 158	225 ± 47	–
NC(Cc1c(F)c(F)c(F)c(F)c1F)P(=O)(O)O (racemic) [1m, 1-Amino-2-(2,3,4,5,6-pentafluorophenyl)ethylphosphonic Acid]	808 ± 132	139 ± 71	–
NC(Cc1cccc(Cl)c1F)P(=O)(O)O (racemic) [1n, 1-Amino-2-(3-chloro-2-fluorophenyl)ethylphosphonic Acid]	85.1 ± 9.1	18.5 ± 7.1	–
NC(Cc1ccc(Cl)cc1F)P(=O)(O)O (racemic) [1o, 1-Amino-2-(4-chloro-2-fluorophenyl)ethylphosphonic Acid]	160 ± 11	17.8 ± 2.09	–
NC(Cc1c(F)cccc1Cl)P(=O)(O)O (racemic) [1r, 1-Amino-2-(2-chloro-6-fluorophenyl)ethylphosphonic Acid]	–	360 ± 125	pAPN Ki (μM) [1, 5]: 2557 ± 729 µM
NC(Cc1ccc(F)cc1Cl)P(=O)(O)O (racemic) [1u, 1-Amino-2-(2-chloro-4-fluorophenyl)ethylphosphonic Acid]	106 ± 12	29.1 ± 10.3	–
NC(Cc1ccccc1C(F)(F)F)P(=O)(O)O (racemic) [1v, 1-Amino-2-(2-trifluoromethylphenyl)ethylphosphonic Acid]	–	–	pAPN Ki (μM) [1, 5]: 2335 ± 617 µM; Ki [2, 6]: > 1000 µM
NC(Cc1ccc(C(F)(F)F)cc1)P(=O)(O)O (racemic) [1x, 1-Amino-2-(4-trifluoromethylphenyl)ethylphosphonic Acid]	257 ± 27	24.9 ± 3	–
NC(Cc1cc(F)ccc1C(F)(F)F)P(=O)(O)O (racemic) [1y, 1-Amino-2-(5-fluoro-2-trifluoromethylphenyl)ethylphosphonic Acid]	–	–	Inactive (no inhibition up to 1 mM) [1, 7]: > 1 mM; Ki [2, 6]: > 1000 µM
NC(CC(F)(F)F)P(=O)(O)O (racemic) [compound 8, (1-Amino-3,3,3-trifluoropropyl)phosphonic acid]	755 ± 230	–	Ki [2]: 84.7 ± 15.8 µM
NC(Cc1ccccc1)P(=O)(O)O (stereo not drawn) [1a, 1-Amino-2-phenylethylphosphonic Acid]	–	–	Ki [1, 7]: 73.3 ± 7.6 µM; Ki ([2]; racemate (hydrochloride), 50 µM Ala-AMC, 50 mM Tris-HCl pH 7.00, 37 °C, 0.66 nM enzyme, 30 min enzyme preincubation in buffer, read-out: hAPN Ki): 15.5 ± 1.7 µM
Cc1cc(=O)oc2cc(NC(=O)[C@H](C)N)ccc12 [Ala-AMC, L-alanine-4-methylcoumaryl-7-amide]	–	–	Km [3]: 73 µM; Km [4]: 90 µM

Now from value to molecule, other results behind:

Ki [1] [µM]	Ki ([2]; read-out: hAPN Ki) [µM]	Structure (SMILES)	other results
95.6 ± 9.6	13.5 ± 2.7	NC(Cc1ccc(F)cc1F)P(=O)(O)O (racemic) [1e, 1-Amino-2-(2,4-difluorophenyl)ethylphosphonic Acid]	–
15.7 ± 2.5	1.71 ± 0.52	NC(Cc1ccc(F)c(F)c1)P(=O)(O)O (racemic) [1h, 1-Amino-2-(3,4-difluorophenyl)ethylphosphonic Acid]	–
8.09 ± 1.1	0.529 ± 0.088	NC(Cc1cc(F)cc(F)c1)P(=O)(O)O (racemic) [1i, 1-Amino-2-(3,5-difluorophenyl)ethylphosphonic Acid]	–
78.5 ± 3.9	15 ± 2.2	NC(Cc1cc(F)c(F)cc1F)P(=O)(O)O (racemic) [1j, 1-Amino-2-(2,4,5-trifluorophenyl)ethylphosphonic Acid]	–
7.1 ± 0.93	0.793 ± 0.138	NC(Cc1cc(F)c(F)c(F)c1)P(=O)(O)O (racemic) [1l, 1-Amino-2-(3,4,5-trifluorophenyl)ethylphosphonic Acid]	–
47.2 ± 1.4	4.3 ± 0.44	NC(Cc1cc(Cl)ccc1F)P(=O)(O)O (racemic) [1p, 1-Amino-2-(5-chloro-2-fluorophenyl)ethylphosphonic Acid]	–
14.8 ± 0.9	1.01 ± 0.16	NC(Cc1ccc(Cl)c(F)c1)P(=O)(O)O (racemic) [1s, 1-Amino-2-(4-chloro-3-fluorophenyl)ethylphosphonic Acid]	–
6.93 ± 0.78	0.542 ± 0.152	NC(Cc1ccc(F)c(Cl)c1)P(=O)(O)O (racemic) [1t, 1-Amino-2-(3-chloro-4-fluorophenyl)ethylphosphonic Acid]	–
66 ± 7.3	2.53 ± 0.4	NC(Cc1cccc(C(F)(F)F)c1)P(=O)(O)O (racemic) [1w, 1-Amino-2-(3-trifluoromethylphenyl)ethylphosphonic Acid]	–
67.7 ± 5.6	3.55 ± 0.43	NC(Cc1ccc(F)c(C(F)(F)F)c1)P(=O)(O)O (racemic) [1z, 1-Amino-2-(4-fluoro-3-trifluoromethylphenyl)ethylphosphonic Acid]	–
